Experimental data taken from US5624906A, “Oral hygiene compositions comprising heteroatom containing alkyl aldonamide compounds” (Lever Brothers Company, Division of Conopco, Inc., priority 1994, dated 1997).
Where two headings read alike, the source gives them in different places.

How the values were obtained:
[1] = Krafft point; format: physicochemical; settings: for Krafft Point (0.1%): 0.1% in water; for Krafft Point (1.0%): 1.0% in water
Protocol: The temperature at and above which surfactants begin to form micelles instead of precipitates is referred to as the Krafft point (Tk) and at this temperature the solubility of a surfactant becomes equal to its CMC (numerical value at which micelles are formed).
The Krafft point was measured by preparing 650 ml of a 0.1% or 1.0% dispersion of aldonamide in water by weight. If the surfactant was soluble at room temperature, the solution was slowly cooled to 0° C. […] (less than zero). If it precipitated out of solution, the temperature at which precipitation occurs was taken as the Krafft point.
If the surfactant was insoluble at room temperature, the dispersion was slowly heated until the solution became homogeneous. It was then slowly cooled until precipitation occurred. The temperature at which the surfactant precipitates out of solution upon cooling was taken as the Krafft point.

[2] = Ross-Miles foam height (Examples 81-84); format: physicochemical; settings: for Foam Height Initial / Foam Height Final: 0.1% aldonamide, 40° C. (or 5-10° C. above Krafft point), 0 ppm hardness; for Foam Height Final: after 10 minutes
Protocol: In the Ross-Miles method, 200 mL of a surfactant solution contained in a pipette of specified dimensions with a 2.9-mm-i.d. orifice is allowed to fall 90 cm onto 50 mL of the same solution contained in a cylindrical vessel maintained at a given temperature by means of a water jacket. The height of the foam produced in the cylindrical vessel is read immediately after all the solution has run out of the pipette and then again after a given amount of time.
Using this method, the foam production (initial foam height in mm) and foam stability (final foam height after 10 minutes in mm) were measured at 0.1% aldonamide concentration, 40° C. and 0 ppm (parts per million) hardness.

[3] = Clarity of prototype surfactant compositions (Example 87); format: physicochemical; settings: room temperature; for Appearance: 6 months
Protocol: The prototype shampoo composition is as follows:
(§1) The above formulations were prepared by admixing the above ingredients in listed order and heating the mixture to about 80° C. with rapid stirring. The mixture was then cooled to about 40° C., placed in a clear jar and stored at room temperature for 6 months.

[4] = Viscosity of sodium lauryl sulfate compositions (Example 88); format: physicochemical; settings: for Viscosity: 22° C.
Protocol: The prototype surfactant composition is as follows:
as §1
It is well known that the viscosity of a liquid composition comprising of anionic surfactant can be modified by the addition of inorganic salts, such as sodium chloride. However, in the absence of an organic modifier, high levels of salt may be necessary to achieve the required viscosity which may lead to problems of storage at cold temperature or even salting out certain ingredients. In practice, however, the viscosity of a liquid composition is modified by the simultaneous addition of thickener and small amounts of inorganic salt (viscosity cobuilder). The combined effect is greater than either one alone. The viscosity of the above prototype surfactant composition comprising various amounts of heteroatom containing alkyl aldonamide compound is as follows: […]

[5] = Effectiveness of adsorption (surface excess concentration, Gibbs equation); format: physicochemical; settings: 60 °C, estimated by extrapolating a linear line
Text: The surface excess concentration at surface saturation (Γmax) is defined as a measure of the effectiveness of surfactant adsorption at the water/air interface and represents the maximum value to which adsorption can be obtained. Effectiveness of adsorption is related to the interfacial area occupied by the surfactant molecule. The smaller the effective cross-sectional area of a surfactant at the interface, the greater its effectiveness of adsorption. The effectiveness of adsorption is an important factor in determining surfactant properties such as detergency, foaming, wetting or emulsification. While not wishing to be bound by theory, it is believed that surfactants that absorb effectively at the interface tend have tightly packed coherent interfacial films and often provide better surfactant benefits than those with loosely packed noncoherent films. The effectiveness of adsorption of C8 /C10 oxypropyl D-gluconamide was determined using the Gibbs equation given as: […]
(∂γ/∂log[Conc])T

[6] = cited from earlier work
[7] = cited from earlier work; remark: listed apart in the source
[8] = Effectiveness in reducing surface tension (surface pressure at CMC); format: physicochemical; settings: 60 °C, estimated by extrapolating a linear line
Text: As mentioned before, surface tension reduction depends on the replacement of water molecules at the interface by surfactant molecules, therefore the effectiveness of a surfactant in reducing interfacial surface tension should reflect the saturated concentration of surfactant at the interface relative to that in bulk liquid phase. During this process the surface tension of water steadily decreases as bulk phase surfactant concentration increases. This will continue until the concentration reaches the critical micelle concentration (CMC), above which the surface tension remains nearly unchanged and the interface is saturated with surfactant. The surface tension at the CMC is therefore very close to the minimum interfacial tension or maximum surface pressure that the system can achieve. The surface pressure at this point, IIcmc, is a suitable measure of the effectiveness of a surfactant in reducing surface tension and is given as:
IIcmc =20+2.3nRT(Γmax) log[CMC/C20 ]
n=1 which represents the number of ions whose surface concentration changes with the change in liquid phase surfactant concentration.
CMC/C20 =is the ratio of the critical micelie concentration to the bulk phase surfactant concentration necessary to reduce the surface tension of water by 20 dyn/cm.

[9] = Foam stability and enhancement of sodium/ammonium lauryl sulfate, Ross-Miles (Example 86); format: physicochemical; settings: 0 ppm hardness, 45° C., 4.0% foam stabilizer in sodium/ammonium lauryl sulfate composition
Protocol: The results were compared to identical compositions comprising petrochemically derived foam stabilizing agents, in particular, alkanolamides and alcohol ethoxylates. The prototype surfactant composition is as follows:
The compositions were prepared by admixing the ingredients in listed order with rapid stirring at 45--50° C. Foam stability and enhancement were measured at 0.1% based on sodium and ammonium lauryl sulfate (0.16% total solids) at 45° C. and 0 or 120 parts per million (ppm) hardness calcium:magnesium ion 2:1.

[10] = 5.0% in […] sodium lauryl sulfate
[11] = 3.0% in […] sodium lauryl sulfate

CCCCCCCCCNC(=O)[C@H](O)[C@@H](O)[C@H](O)[C@H](O)CO [C9 D-Gluconamide]
Krafft Point (0.1%) [1]: 53 °C | Foam Height Initial [2]: 0 mm | Foam Height Final [2]: 0 mm | Appearance ([3]; 4.0% in […] sodium lauryl sulfate): Precipitate | Appearance (Time): time of precipitate ([3]; 4.0%): 2 weeks | Appearance [3, 10]: Precipitate | Appearance (Time): time of precipitate ([3]; 5.0%): 2 weeks

CCCCCCCCCCNC(=O)[C@H](O)[C@@H](O)[C@H](O)[C@H](O)CO [C10 D-Gluconamide]
Krafft Point (0.1%) [1]: 75 °C | Foam Height Final [2]: 6 mm | Appearance [3, 11]: Precipitate | Appearance [3, 10]: Precipitate

CCCCCCCCCCCCOCCCNC(=O)[C@H](O)[C@@H](O)[C@H](O)[C@H](O)CO [C12 Oxypropyl D-Gluconamide]
Viscosity Increase ([4]; 3.0% thickener): 120 x | Viscosity ([4]; 3.0% thickener): 1800 Centipoise | Viscosity Increase ([4]; 5.0% thickener): 1373 x | Viscosity ([4]; 5.0% thickener): 20600 Centipoise | Krafft Point (0.1%) [1]: 61 °C | Foam Height Initial [2]: 200 mm | Foam Height Final [2]: 110 mm | Appearance [3, 11]: Clear | Appearance [3, 10]: Precipitate | Appearance (Time): time of precipitate ([3]; 5.0%): 5 months

CCCCCCCCCCCCOCCCNC(=O)[C@H](O)[C@@H](O)[C@H](O[C@@H]1O[C@H](CO)[C@H](O)[C@H](O)[C@H]1O)[C@H](O)CO [C12 Oxypropyl D-Lactobionamide, dodecyloxypropyl D-lactobionamide]
Viscosity Increase ([4]; 3.0% thickener): 23 x | Viscosity ([4]; 3.0% thickener): 340 Centipoise | Viscosity Increase ([4]; 5.0% thickener): 97 x | Viscosity ([4]; 5.0% thickener): 1455 Centipoise | Krafft Point (1.0%) [1]: < 0 °C

CCCCCCCCCCCCCCCCNC(=O)[C@H](O)[C@@H](O)[C@H](O[C@@H]1O[C@H](CO)[C@H](O)[C@H](O)[C@H]1O)[C@H](O)CO [C16 D-Lactobionamide]
Krafft Point (1.0%) [1]: 64 °C | Foam Height Initial [2]: 95 mm | Foam Height Final [2]: 95 mm

CCCCCCCCCCCCCCCCCCNC(=O)[C@H](O)[C@@H](O)[C@H](O)[C@H](O)CO [C18 D-Gluconamide]
Krafft Point (0.1%) [1]: > 100 °C | Solubility ([2]; 0.1% in water): Insoluble

CCCCCCCCCCCCOCCOCCOCCOCCOCCOCCOCCO [Dodecylhepta(oxyethylene) Ether]
Γmax (surface excess concentration at surface saturation) [5]: 2.71 × 10^-10 mole/cm^2 | Γmax (surface excess concentration at surface saturation) ([6]; 25 °C): 2.90 × 10^-10 mole/cm^2 | Γmax (surface excess concentration at surface saturation) ([6]; 40 °C): 2.77 × 10^-10 mole/cm^2 | Πcmc (surface pressure) ([7]; 25 °C): 38.3 dyn/cm | Πcmc (surface pressure) ([7]; 40 °C): 38.5 dyn/cm | Πcmc (surface pressure) [8]: 36.8 dyn/cm

CCCCCCCCCCCCOCCOCCOCCOCCOCCO [Dodecylpenta(oxyethylene) Ether]
Γmax (surface excess concentration at surface saturation) [5]: 3.16 × 10^-10 mole/cm^2 | Γmax (surface excess concentration at surface saturation) ([6]; 25 °C): 3.31 × 10^-10 mole/cm^2 | Γmax (surface excess concentration at surface saturation) ([6]; 40 °C): 3.28 × 10^-10 mole/cm^2 | CMC/C20 ([7]; 25 °C): 15.0 | Πcmc (surface pressure) ([7]; 25 °C): 41.5 dyn/cm | Πcmc (surface pressure) ([7]; 40 °C): 41.2 dyn/cm | Πcmc (surface pressure) [8]: 40.7 dyn/cm

CCCCCCCCCCCCOCCOCCOCCOCCO [Dodecyltetra(oxyethylene) Ether]
Γmax (surface excess concentration at surface saturation) [5]: 3.01 × 10^-10 mole/cm^2 | Γmax (surface excess concentration at surface saturation) ([6]; 25 °C): 3.63 × 10^-10 mole/cm^2 | Γmax (surface excess concentration at surface saturation) ([6]; 40 °C): 3.41 × 10^-10 mole/cm^2 | Πcmc (surface pressure) ([7]; 25 °C): 43.4 dyn/cm | Πcmc (surface pressure) ([7]; 40 °C): 42.0 dyn/cm | Πcmc (surface pressure) [8]: 40.7 dyn/cm

CCCCCCCCCCCCOCCOCCOCCO [Dodecyltri(oxyethylene) Ether]
Γmax (surface excess concentration at surface saturation) [5]: 3.83 × 10^-10 mole/cm^2 | Γmax (surface excess concentration at surface saturation) ([6]; 25 °C): 3.98 × 10^-10 mole/cm^2 | Γmax (surface excess concentration at surface saturation) ([6]; 40 °C): 3.90 × 10^-10 mole/cm^2 | Πcmc (surface pressure) ([7]; 25 °C): 44.1 dyn/cm | Πcmc (surface pressure) ([7]; 40 °C): 43.1 dyn/cm | Πcmc (surface pressure) [8]: 41.4 dyn/cm

CCCCC(CC)COCCCNC(=O)[C@H](O)[C@@H](O)[C@H](O)[C@H](O)CO (stereo partly drawn) [Ethylhexyloxypropyl D-Gluconamide]
Krafft Point (0.1%) [1]: < 0 °C | Foam Height Initial [2]: 0 mm | Foam Height Final [2]: 0 mm

CCCCCCCCCCCC(=O)N(CCO)CCO [Lauramide DEA, lauramide diethanolamine]
Initial FH [9]: 190 mm

CCCCCCCC/C=C\CCCCCCCCNCCCNC(=O)[C@H](O)[C@@H](O)[C@H](O)[C@H](O)CO [Oleylaminopropyl D-Gluconamide, oleylaminopropyl D-gluconamide]
Krafft Point (0.1%) [1]: < 0 °C | Foam Height Final [2]: 84 mm

coco D-gluconamide
Appearance [3, 11]: Precipitate | Appearance (Time): time of precipitate ([3]; 3.0%): 1 days | Appearance [3, 10]: Precipitate | Appearance (Time): time of precipitate ([3]; 5.0%): 0.083 days

cocoaminopropyl D-gluconamide
Krafft Point (0.1%) [1]: 18 °C | Foam Height Initial [2]: 186 mm | Foam Height Final [2]: 182 mm | Appearance [3, 11]: Clear | Appearance [3, 10]: Clear

cocoaminopropyl D-lactobionamide
Krafft Point (1.0%) [1]: < 0 °C | Foam Height Initial [2]: 171 mm | Foam Height Final [2]: 168 mm

dodecyl to pentadecyloxypropyl D-gluconamide [C12 -C15 Oxypropyl D-Gluconamide]
Krafft Point (0.1%) [1]: 58 °C | Foam Height Initial [2]: 200 mm | Foam Height Final [2]: 110 mm

dodecyl to pentadecyloxypropyl D-lactobionamide [C12 -C15 Oxypropyl D-Lactobionamide]
Krafft Point (1.0%) [1]: < 0 °C | Foam Height Initial [2]: 166 mm | Foam Height Final [2]: 155 mm

dodecyl to pentadecyloxypropylaminopropyl D-gluconamide
Krafft Point (0.1%) [1]: < 0 °C | Foam Height Initial [2]: 180 mm

dodecyl to pentadecyloxypropylaminopropyl D-lactobionamide
Krafft Point (1.0%) [1]: < 0 °C | Foam Height Initial [2]: 173 mm | Foam Height Final [2]: 169 mm

octyl/decyloxypropyl D-lactobionamide [C8 /C10 Oxypropyl D-Lactobionamide]
Krafft Point (1.0%) [1]: < 0 °C | Foam Height Initial [2]: 168 mm | Foam Height Final [2]: 158 mm | Appearance [3, 11]: Clear | Appearance [3, 10]: Clear

octyl/decyloxypropyl D-ribonamide [C8 /C10 Oxypropyl D-Ribonamide]
Krafft Point (0.1%) [1]: 10 °C | Foam Height Initial [2]: 217 mm | Foam Height Final [2]: 200 mm
